# Target: T1, 5-aminopentaneamide amide hydrolase (Pseudomonas sp. TPU-A5, UniProt W6JNP2)
# T1 sequence (W6JNP2 1-504): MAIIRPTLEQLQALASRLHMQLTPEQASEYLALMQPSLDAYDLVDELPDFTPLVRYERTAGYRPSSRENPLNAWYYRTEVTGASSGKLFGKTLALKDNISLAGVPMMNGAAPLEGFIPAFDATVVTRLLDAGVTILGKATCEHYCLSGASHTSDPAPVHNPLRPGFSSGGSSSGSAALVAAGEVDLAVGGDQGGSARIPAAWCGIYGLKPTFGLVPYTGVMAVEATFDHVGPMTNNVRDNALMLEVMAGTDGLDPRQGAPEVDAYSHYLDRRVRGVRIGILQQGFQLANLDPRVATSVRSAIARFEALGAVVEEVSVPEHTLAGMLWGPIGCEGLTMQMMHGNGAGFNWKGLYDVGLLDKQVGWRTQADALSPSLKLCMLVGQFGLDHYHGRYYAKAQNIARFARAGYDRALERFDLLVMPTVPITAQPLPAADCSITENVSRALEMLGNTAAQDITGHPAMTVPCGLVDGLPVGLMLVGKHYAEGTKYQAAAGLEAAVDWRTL
# Test: ammonia liberation
# Format: biochemical
# Conditions: room temperature; purified fractions of native enzyme
structure (smiles),measurement,value
CCCCC(N)=O [valeramide],ammonia liberation (indophenol reaction),assayed at room temperature by measuring the ammonia liberated from valeramide degradation
